Results from patent publication US20140248347A1 (PFIZER INC., priority 2011, published 2014).

Experiment: Susceptibility of axitinib API to degradation found during drug development
Type: physicochemical
Conditions: active pharmaceutical ingredient

CNC(=O)c1ccccc1Sc1ccc2c(/C=C/c3ccccn3)n[nH]c2c1 [axitinib, N-methyl-2-[3-((E)-2-pyridin-2-yl-vinyl)-1H-indazol-6-ylsulfanyl]-benzamide]
susceptibility to degradation, including photodegradation: highly susceptible to degradation, including photodegradation
